Measurements published in the supplement of paper PMC10307832.

Assays:
Test in all cases: relative viability (nuclei count vs DMSO), 5 days (fraction); higher = more cells survive
[1] = compound: C1CSC2=C(C(=O)N1)SC3=C2C=C(C=C3)O [kb NB 142-70] + N=C(N)NC(=N)NCCc1ccccc1 [Phenformin] (partner 250 µM)
Outline: (§1)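 Lung cancer cell lines in 1536-well plates were dosed by pin tool the day after seeding, either with one drug alone or with a fixed anchor-drug dose plus five library-drug doses (not always all listed) in √10 steps. After 5 days, cells were fixed and their nuclei stained in one step (final 0.05% Triton X-100, 1% formaldehyde, 1 ug/ml Hoechst), then counted on 4× images. Relative viability is the nuclei count in treated wells divided by that in vehicle wells. Values are medians of duplicate plates.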

[2] = compound: C1CSC2=C(C(=O)N1)SC3=C2C=C(C=C3)O [kb NB 142-70] + Cc1nc(NC(=O)N2CCC[C@H]2C(N)=O)sc1-c1ccnc(C(C)(C)C(F)(F)F)c1 [Alpelisib] (partner 2 µM)
Outline: as §1

[3] = compound: C1CSC2=C(C(=O)N1)SC3=C2C=C(C=C3)O [kb NB 142-70] + O=C(CCCCCCC(=O)Nc1ccccc1)NO [Vorinostat] (partner 1 µM)
Outline: as §1

[4] = compound: C1CSC2=C(C(=O)N1)SC3=C2C=C(C=C3)O [kb NB 142-70] + O=C(c1cc(Cc2n[nH]c(=O)c3ccccc23)ccc1F)N1CCN(C(=O)C2CC2)CC1 [Olaparib] (partner 8 µM)
Outline: as §1

[5] = compound: C1CSC2=C(C(=O)N1)SC3=C2C=C(C=C3)O [kb NB 142-70] + C[C@]1(O)C[C@@H](c2nc(-c3ccc4ccc(-c5ccccc5)nc4c3)c3c(N)nccn32)C1 [Linsitinib] (partner 1 µM)
Outline: as §1

[6] = compound: NCC(=O)Nc1ccc(-n2nc(C(F)(F)F)cc2-c2ccc3c(ccc4ccccc43)c2)cc1 + Cc1nc(NC(=O)N2CCC[C@H]2C(N)=O)sc1-c1ccnc(C(C)(C)C(F)(F)F)c1 [Alpelisib] (partner 2 µM)
Outline: as §1

Work on UMC-11 yielded a relative viability ([1]; first compound 0.1 µM) of 0.338, a relative viability ([1]; first compound 1 µM) of 0.307 and a relative viability ([1]; first compound 3.162 µM) of 0.251. The relative viability ([2]; first compound 0.1 µM) was 0.96, the relative viability ([2]; first compound 1 µM) was 0.959 and the relative viability ([2]; first compound 3.162 µM) was 0.418. The relative viability ([3]; first compound 0.1 µM) was 0.39, the relative viability ([3]; first compound 1 µM) was 0.316 and the relative viability ([3]; first compound 3.162 µM) was 0.223. For the same cell line, the relative viability ([4]; first compound 0.1 µM) was 0.309, the relative viability ([4]; first compound 1 µM) was 0.315 and the relative viability ([4]; first compound 3.162 µM) was 0.199. For the same cell line, the relative viability ([5]; first compound 0.1 µM) was 1.04, the relative viability ([5]; first compound 1 µM) was 0.984 and the relative viability ([5]; first compound 3.162 µM) was 0.599. The relative viability ([6]; first compound 0.02 µM) was 0.985, the relative viability ([6]; first compound 0.06325 µM) was 0.968 and the relative viability ([6]; first compound 0.2 µM) was 1.03. It also gave a relative viability ([6]; first compound 0.6325 µM) of 0.958 and a relative viability ([6]; first compound 2 µM) of 1.1.
